Results on one molecule are retold here after ChEMBL document CHEMBL6074678, “Selectively Antagonizing the NOD1-Mediated Inflammatory Signaling Pathway Mitigates the Gastric Inflammation Induced by Helicobacter pylori Infection” (J Med Chem, 2024).

Calls of active or inactive are those of the source. The calls are words filed in the database; no cut-off is given here.

Series [1] in a line: Anti-inflammatory activity in mouse BMDM cells assessed as decrease in IL-6 mRNA level at 0.1 uM pretreated for 1 hr followed by C12-iE-DAP stimulation for 2 hrs by RT-qPCR analysis relative to control. It is filed as functional. The arrangement: scale not given: the % may be the effect or the level left. To be noted: time 3 hrs. In general terms: Real-time PCR tracks product formation cycle by cycle.

For another series, the system named is AGS. Description: Anti-inflammatory activity in human AGS cells assessed as decrease in CXCL8 mRNA level at 1 to 5 uM pretreated for 1 hr followed by infection with Helicobacter pylori for 2 hrs by RT-qPCR analysis. It is filed as functional, cell-based. Particulars: dose 1-5 µM, time 3.0 hrs.
Series [2] is described as follows: AUC (infinity) in C57BL/6 mouse at 2 mg/kg, iv by LC-MS/MS analysis. In kind it is ADME, organism-based. To be noted: in vivo.

As to `CS(=O)(=O)c1ccc2nc(Cl)n(-c3ccc(Cl)c(NS(=O)(=O)c4c(F)cccc4F)c3)c(=O)c2c1`, in series [1], the Activity is given as roughly 100%. Besides, the result in the series with AGS was Active. Besides, the AUC (commonly concentration integrated over time) in series [2] was 75.3 ng·h/mL.
